Measurements from US10167262B2, “Herbicidal substituted 3-arylpyrazoles” (FMC CORPORATION, priority 2014, dated 2019).
Like-named read-outs stand apart in the source and are kept apart here.

Tests used:
Test in all cases: Test C pre-/postemergence greenhouse test, plant response rating 0-100
Type in all cases: in vivo
[1] = tested on: Italian ryegrass (Lolium multiflorum); conditions: Lolium multiflorum; for pest or weed control at 62 g/ha: 62 g ai/ha; for pest or weed control at 125 g/ha: 125 g ai/ha; for pest or weed control at 250 g/ha: 250 g ai/ha; for pest or weed control at 500 g/ha: 500 g ai/ha
From the text: (§1) Seeds of plant species selected from blackgrass (Alopecurus myosuroides), Italian ryegrass (Lolium multiflorum), winter wheat (Triticum aestivum), galium (catchweed bedstraw, Galium aparine), corn (Zea mays), large (Lg) crabgrass (Digitaria sanguinalis), giant foxtail (Setaria faberii), johnsongrass (Sorghum halepense), lambsquarters (Chenopodium album), morningglory (Ipomoea coccinea), yellow nutsedge (Cyperus esculentus), pigweed (Amaranthus retroflexus), ragweed (common ragweed, Ambrosia elatior), soybean (Glycine max), barnyardgrass (Echinochloa crus-galli), oilseed rape (Brassica napus), waterhemp (common waterhemp, Amaranthus rudis), and velvetleaf (Abutilon theophrasti) were planted into a blend of loam soil and sand and treated preemergence with test chemicals formulated in a non-phytotoxic solvent mixture which included a surfactant.
(§2) At the same time, plants selected from these crop and weed species and also winter barley (Hordeum vulgare), bermudagrass (Cynodon dactylon), downy bromegrass (Bromus tectorum), canarygrass (Phalaris minor), cocklebur (common cocklebur, Xanthium strumarium), woolly cupgrass (Eriochloa villosa), deadnettle (henbit deadnettle, Lamium amplexicaule), green foxtail (Setaria viridis), goosegrass (Eleusine indica), surinam grass (Brachiaria decumbens), windgrass (Apera spica-venti), chickweed (common chickweed, Stellaria media), kochia (Kochia scoparia), and wild oat (Avena fatua), were planted in pots containing Redi-Earth® planting medium (Scotts Company, 14111 Scottslawn Road, Marysville, Ohio 43041) comprising spaghnum peat moss, vermiculite, wetting agent and starter nutrients and treated with postemergence applications of test chemicals formulated in the same manner. Plants ranged in height from 2 to 18 cm (1- to 4-leaf stage) for postemergence treatments. Treated plants and controls were maintained in a greenhouse for 13 to 15 days, after which time all species were compared to controls and visually evaluated. Plant response ratings, summarized in Table C, are based on a scale of 0 to 100 where 0 is no effect and 100 is complete control. A dash (-) response means no test result.

[2] = tested on: blackgrass (Alopecurus myosuroides); conditions: Alopecurus myosuroides; for pest or weed control at 62 g/ha: 62 g ai/ha; for pest or weed control at 125 g/ha: 125 g ai/ha; for pest or weed control at 250 g/ha: 250 g ai/ha; for pest or weed control at 500 g/ha: 500 g ai/ha
From the text: as §1, §2

corn (Zea mays) = conditions: Zea mays; for Corn plant response rating (crop injury, 0 = no effect, 100 = complete kill) at 250 g/ha: 250 g ai/ha; for Corn plant response rating (crop injury, 0 = no effect, 100 = complete kill) at 500 g/ha: 500 g ai/ha
From the text: as §1, §2

[3] = tested on: galium (catchweed bedstraw, Galium aparine); conditions: Galium; for pest or weed control at 62 g/ha: 62 g ai/ha; for pest or weed control at 125 g/ha: 125 g ai/ha; for pest or weed control at 250 g/ha: 250 g ai/ha; for pest or weed control at 500 g/ha: 500 g ai/ha
From the text: as §1, §2

[4] = tested on: giant foxtail (Setaria faberii); conditions: Setaria faberi; for pest or weed control at 62 g/ha: 62 g ai/ha; for pest or weed control at 125 g/ha: 125 g ai/ha; for pest or weed control at 250 g/ha: 250 g ai/ha; for pest or weed control at 500 g/ha: 500 g ai/ha
From the text: as §1, §2

[5] = tested on: large (Lg) crabgrass (Digitaria sanguinalis); conditions: Digitaria sanguinalis; for pest or weed control at 62 g/ha: 62 g ai/ha; for pest or weed control at 125 g/ha: 125 g ai/ha; for pest or weed control at 250 g/ha: 250 g ai/ha; for pest or weed control at 500 g/ha: 500 g ai/ha
From the text: as §1, §2

[6] = tested on: pigweed (Amaranthus retroflexus); conditions: Amaranthus retroflexus, post-emergence; Postemergence, 62 g ai/ha; read-out: Plant response rating (0 to 100), Pigweed
From the text: as §1, §2

[7] = post-emergence, Postemergence, read-out: Plant response rating (0 to 100), Ryegrass, Italian
[8] = post-emergence, Postemergence, scale 0 to 100
[9] = pre-emergence, Preemergence, read-out: Plant response rating, Ryegrass, Italian
[10] = pre-emergence, Preemergence, read-out: Plant response rating, Blackgrass
[11] = post-emergence, Postemergence, read-out: Plant response rating (0 to 100), Galium
[12] = pre-emergence, Preemergence, read-out: Plant response rating, Galium
[13] = post-emergence, Postemergence, read-out: Plant response rating (0 to 100), Foxtail, Giant
[14] = pre-emergence, Preemergence, read-out: Plant response rating, Foxtail, Giant
[15] = post-emergence, Postemergence, read-out: Plant response rating (0 to 100), Crabgrass, Large
[16] = pre-emergence, Preemergence, read-out: Plant response rating, Crabgrass, Large

## COC(OC)(c1ccccc1)c1c[nH]nc1-c1cc(Cl)cc(Cl)c1 [Compound 13, 3-(3,5-dichlorophenyl)-4-(dimethoxyphenylmethyl)-1H-pyrazole]
[1]; [7]
  pest or weed control at 62 g/ha: 0%
  pest or weed control at 125 g/ha: 0%
[1]; [8]
  pest or weed control at 250 g/ha: 0%
  pest or weed control at 500 g/ha: 0%
[1]; [9]
  pest or weed control at 62 g/ha: 0%
  pest or weed control at 125 g/ha: 0%
[1]; pre-emergence, Preemergence
  pest or weed control at 250 g/ha: 0%
  pest or weed control at 500 g/ha: 0%
[2]; post-emergence, Postemergence, read-out: Plant response rating (0 to 100), Blackgrass
  pest or weed control at 62 g/ha: 5%
[2]; post-emergence, Postemergence, scale 0 to 100, read-out: Plant response rating, Blackgrass
  pest or weed control at 125 g/ha: 0%
[2]; [8]
  pest or weed control at 250 g/ha: 0%
  pest or weed control at 500 g/ha: 0%
[2]; [10]
  pest or weed control at 62 g/ha: 10%
  pest or weed control at 125 g/ha: 10%
[2]; pre-emergence, Preemergence
  pest or weed control at 250 g/ha: 50%
  pest or weed control at 500 g/ha: 40%
Corn (Zea mays); post-emergence, Postemergence, 62 g ai/ha
  plant injury at 62 g/ha: 0%
Corn (Zea mays); post-emergence, Postemergence, 125 g ai/ha
  plant injury at 125 g/ha: 0%
Corn (Zea mays); [8]
  Corn plant response rating (crop injury, 0 = no effect, 100 = complete kill) at 250 g/ha: 0%
  Corn plant response rating (crop injury, 0 = no effect, 100 = complete kill) at 500 g/ha: 0%
Corn (Zea mays); pre-emergence, Preemergence, 62 g ai/ha
  Corn plant response rating (crop injury, 0 = no effect, 100 = complete kill) at 62 g/ha: 0%
Corn (Zea mays); pre-emergence, Preemergence, 125 g ai/ha
  Corn plant response rating (crop injury, 0 = no effect, 100 = complete kill) at 125 g/ha: 0%
Corn (Zea mays); pre-emergence, Preemergence
  Corn plant response rating (crop injury, 0 = no effect, 100 = complete kill) at 250 g/ha: 0%
  Corn plant response rating (crop injury, 0 = no effect, 100 = complete kill) at 500 g/ha: 0%
[3]; [11]
  pest or weed control at 62 g/ha: 0%
  pest or weed control at 125 g/ha: 0%
[3]; [8]
  pest or weed control at 250 g/ha: 40%
  pest or weed control at 500 g/ha: 10%
[3]; [12]
  pest or weed control at 62 g/ha: 60%
  pest or weed control at 125 g/ha: 0%
[3]; pre-emergence, Preemergence
  pest or weed control at 250 g/ha: 30%
  pest or weed control at 500 g/ha: 0%
[4]; [13]
  pest or weed control at 62 g/ha: 0%
  pest or weed control at 125 g/ha: 0%
[4]; [8]
  pest or weed control at 250 g/ha: 0%
  pest or weed control at 500 g/ha: 0%
[4]; [14]
  pest or weed control at 62 g/ha: 0%
  pest or weed control at 125 g/ha: 0%
[4]; pre-emergence, Preemergence
  pest or weed control at 250 g/ha: 0%
  pest or weed control at 500 g/ha: 0%
[5]; [15]
  pest or weed control at 62 g/ha: 0%
  pest or weed control at 125 g/ha: 10%
[5]; [8]
  pest or weed control at 250 g/ha: 10%
  pest or weed control at 500 g/ha: 0%
[5]; [16]
  pest or weed control at 62 g/ha: 0%
  pest or weed control at 125 g/ha: 0%
[5]; pre-emergence, Preemergence
  pest or weed control at 250 g/ha: 0%
  pest or weed control at 500 g/ha: 0%
[6]
  pest or weed control at 62 g/ha: 75%
